Results on nine molecules are retold here after patent US4667030A, “Hydrazide succinimide derivatives of antineoplastic indole-dihydroindole alkaloids” (priority 1985, dated 1987).

≈ marks a conversion by molar mass, not a printed value. Where a name gives a salt, the structure may show the parent alone.

Series [1] relates to CCRF-CEM, a human acute lymphoblastic leukemia cell line. Briefly: CCRF-CEM cytotoxicity screen (cytostatic activity). It is filed as cell-based. To be noted: for IC50: Homo sapiens, read-out: IC50 (50% minimum inhibitory concentration). Here is the method:
The compounds of this invention have utility as anti-neoplastic compounds active against transplanted tumors in mice. They also have […]. As evidence of such utility, the cytostatic activity of the compounds was measured by standard procedures against CCRF-CEM, a human acute lymphoblastic leukemia cell line. In the table, column 1 gives the name of the compound, and column 2 the 50% minimum inhibitory concentration of the drug from column 1 in mcg./ml.

The subject of another series is 6C3HED lymphosarcoma. Briefly: In vivo test, transplanted 6C3HED lymphosarcoma in mice. To be noted: for % INHIBITION / In vivo test: Toxic: 6C3HED; for activity against transplanted tumor: 6C3HED lymphosarcoma, mice.
Series [2] relates to X-5563 plasma cell myeloma. The series is described as follows: In vivo test, transplanted X-5563 plasma cell myeloma in mice. As to conditions: for activity against transplanted tumor: X-5563 plasma cell myeloma, mice.
A further series relates to C-26 colon carcinoma. Briefly: In vivo test, transplanted C-26 colon carcinoma in mice. As to conditions: for activity against transplanted tumor: C-26 colon carcinoma, mice.
For another series, the system named is B-16 Sub.C. melanoma. Briefly: In vivo test, transplanted B-16 Sub.C. melanoma in mice. To be noted: for activity against transplanted tumor: B-16 Sub.C. melanoma, mice.
Series [3] has as its system vincristine-resistant leukemias. As to conditions: common neoplasms including germ-cell tumors; cited from earlier work.

Regarding `CC[C@H]1C[C@@H]2CN(CCc3c([nH]c4ccccc34)[C@@](C(=O)OC)(c3cc4c(cc3OC)N(C)[C@H]3[C@@](O)(C(=O)NN5C(=O)CCC5=O)[C@H](O)[C@]5(CC)C=CCN6CC[C@]43[C@@H]65)C2)C1` [4'-deoxy-4-desacetylleurosidine 3-carboxhydrazide N^2-succinimide sulfate], the IC50 in series [1] was 0.075 µg/mL.

As for `CC[C@]1(O)C[C@@H]2CN(CCc3c([nH]c4ccccc34)[C@@](C(=O)OC)(c3cc4c(cc3OC)N(C)[C@H]3[C@@](O)(C(=O)NN5C(=O)CCC5=O)[C@H](O)[C@]5(CC)C=CCN6CC[C@]43[C@@H]65)C2)C1` [4-Desacetyl VLB 3-carboxhydrazide N^2 --succinimide sulfate], the “% INHIBITION” value is given as 100% in the series with 6C3HED lymphosarcoma (i.v. x 1, 1.25 mg/kg) and 100% in the series with 6C3HED lymphosarcoma (i.v. x 1, 2.5 mg/kg). Also, the “In vivo test: Toxic” value with 6C3HED lymphosarcoma (i.v. x 1, 5 mg/kg) is listed as “Toxic”. In addition, the IC50 in series [1] came out at 0.02 µg/mL.

With `CC[C@]1(O)C[C@@H]2CN(CCc3c([nH]c4ccccc34)[C@@](C(=O)OC)(c3cc4c(cc3OC)N(C)[C@H]3[C@@](O)(C(=O)NN5C(=O)CCCC5=O)[C@H](O)[C@]5(CC)C=CCN6CC[C@]43[C@@H]65)C2)C1` [4-Desacetyl VLB Hydrazide N^2 --Glutarimide Sulfate], the “% INHIBITION” value was 79% with 6C3HED lymphosarcoma (i.v. x 1, 0.0625 mg/kg); 80% in the series on 6C3HED lymphosarcoma (i.v. x 1, 0.125 mg/kg); 100% in the series with 6C3HED lymphosarcoma (i.v. x 1, 0.25 mg/kg); 100% in the series on 6C3HED lymphosarcoma (i.v. x 1, 0.5 mg/kg); 100% in the series on 6C3HED lymphosarcoma (i.v. x 1, 1 mg/kg). Moreover, the “In vivo test: Toxic” value is reported as “Toxic” in the series with 6C3HED lymphosarcoma (i.v. x 1, 2 mg/kg); “Toxic” with 6C3HED lymphosarcoma (i.v. x 1, 4 mg/kg); “Toxic” in the series with 6C3HED lymphosarcoma (i.v. x 1, 8 mg/kg).

With `CCC(=O)O[C@@H]1[C@]2(CC)C=CCN3CC[C@@]4(c5cc([C@@]6(C(=O)OC)C[C@H]7CN(CCc8c6[nH]c6ccccc86)C[C@](O)(CC)C7)c(OC)cc5N(C)[C@H]4[C@@]1(O)C(=O)NN1C(=O)CCC1=O)[C@@H]32` [4-Propionyl VLB 3-carboxhydrazide N^2 --succinimide sulfate], the “% INHIBITION” value in the series on 6C3HED lymphosarcoma (i.v. x 1, 1.25 mg/kg) stood at 100%; in the series with 6C3HED lymphosarcoma (i.v. x 1, 2.5 mg/kg), 100%. Moreover, the “In vivo test: Toxic” value in the series with 6C3HED lymphosarcoma (i.v. x 1, 5 mg/kg) was “Toxic”. Moreover, in series [1], the IC50 was found to be 0.01 µg/mL.

Regarding `CC[C@]1(O)C[C@@H]2CN(CCc3c([nH]c4ccccc34)[C@@](C(=O)OC)(c3cc4c(cc3OC)N(C)[C@H]3[C@@](O)(C(=O)NN5C(=O)CCC5=O)[C@H](OC(=O)CCC(=O)O)[C@]5(CC)C=CCN6CC[C@]43[C@@H]65)C2)C1` [4-Succinoyl VLB 3-carboxhydrazide N^2-succinimide], the IC50 in series [1] is 0.5 µg/mL (≈ 0.526 µM).

Take `CC[C@]1(O)C[C@@H]2CN(CCc3c([nH]c4ccccc34)[C@@](C(=O)OC)(c3cc4c(cc3OC)N(C)[C@H]3[C@@](O)(C(=O)NN5C(=O)CCCC5=O)[C@H](O)[C@]5(CC)C=CCN6CC[C@]43[C@@H]65)C2)C1` [4-desacetyl VLB 3-carboxhydrazide N^2-glutarimide]: the “activity against transplanted tumor” value (in series [2]; with C-26 colon carcinoma; in the series with 6C3HED lymphosarcoma; with B-16 Sub.C. melanoma) was “outstanding activity” throughout.

Consider `CC[C@]1(O)C[C@@H]2CN(CCc3c([nH]c4ccccc34)[C@@](C(=O)OC)(c3cc4c(cc3OC)N(C)[C@H]3[C@@](O)(C(=O)NN5C(=O)CCC5=O)[C@H](O)[C@]5(CC)C=CCN6CC[C@]43[C@@H]65)C2)C1` [4-desacetyl VLB 3-carboxhydrazide N^2-succinimide], for which the “activity against transplanted tumor” value (in series [2]; in the series on C-26 colon carcinoma; in the series with 6C3HED lymphosarcoma; in the series with B-16 Sub.C. melanoma) was “outstanding activity” in each case.

For the molecule `CC[C@]1(O)C[C@@H]2CN(CCc3c([nH]c4ccccc34)[C@@](C(=O)OC)(c3cc4c(cc3OC)N(C)[C@H]3[C@@](O)(C(N)=O)[C@H](O)[C@]5(CC)C=CCN6CC[C@]43[C@@H]65)C2)C1` [vindesine, 4-desacetyl VLB 3-carboxamide], the “effectiveness in treating leukemias and neoplasms” value in series [3] is on record as “effective in treating some vincristine-resistant leukemias in addition to many common neoplasms including germ-cell tumors”.

On to “VLB 3-carboxhydrazide N^2 --succinimide sulfate”, for which the “% INHIBITION” value in series [2] (X5563, i.v. 1 & 7, dose 0.25) turned out to be 25%; in series [2] (X5563, i.v. 1 & 7, dose 0.5), 30%; in series [2] (X5563, i.v. 1 & 7, dose 1), 59%; in series [2] (X5563, i.v. 1 & 7, dose 2) it was 94%; in the series with C-26 colon carcinoma (C-26, i.v. 1 & 7, dose 0.25) it was 0%; in the series on C-26 colon carcinoma (C-26, i.v. 1 & 7, dose 0.5) it was 0%. In addition, the “% INHIBITION” value in the series with C-26 colon carcinoma (C-26, i.v. 1 & 7, dose 1) is on record as 50%; in the series on C-26 colon carcinoma (C-26, i.v. 1 & 7, dose 2), 73%; with 6C3HED lymphosarcoma (i.v. x 1, 0.0625 mg/kg) it was 11%; in the series with 6C3HED lymphosarcoma (i.v. x 1, 0.125 mg/kg) it was 94%; with 6C3HED lymphosarcoma (i.v. x 1, 0.25 mg/kg) it was 100%; in the series with 6C3HED lymphosarcoma (i.v. x 1, 0.5 mg/kg), 100%. Also, the “% INHIBITION” value in the series with 6C3HED lymphosarcoma (i.v. x 1, 1 mg/kg) turned out to be 100%; in the series on B-16 Sub.C. melanoma (B-16 Sub. C., i.v. 1 & 7, dose 0.5), 51%; in the series with B-16 Sub.C. melanoma (B-16 Sub. C., i.v. 1 & 7, dose 1) it was 82%; in the series on B-16 Sub.C. melanoma (B-16 Sub. C., i.v. 1 & 7, dose 2), 91%; in the series with B-16 Sub.C. melanoma (B-16 Sub. C., i.v. 1 & 7, dose 25 (so in the source)) it was 8%. The “In vivo test: Toxic” value in series [2] (X5563, i.v. 1 & 7, dose 4) is listed as “Toxic”; in the series with C-26 colon carcinoma (C-26, i.v. 1 & 7, dose 4) it was “Toxic”; in the series on 6C3HED lymphosarcoma (i.v. x 1, 2 mg/kg), “Toxic”; with 6C3HED lymphosarcoma (i.v. x 1, 4 mg/kg) it was “Toxic”; in the series on B-16 Sub.C. melanoma (B-16 Sub. C., i.v. 1 & 7, dose 4), “Toxic”. Moreover, in series [1], the “IC50 (50% minimum inhibitory concentration)” value is 0.01 µg/mL.
